Measurements taken from patent publication US10238713B2, “Cyclic tetrapeptides and therapeutic applications thereof” (LODZ UNIVERSITY OF TECHNOLOGY, priority 2010, dated 2019).
Several values for one entry are separate records, joined by “and”; a condition that tells them apart may be missing. Identical values can stand only once. Non-standard residues stand in square brackets, D forms with d. Residues, ends and D or L forms follow the SMILES beside them. β3hF = N[C@H](CC(=O)O)Cc1ccccc1

What was measured:
[1] = tested on: mice, carrageenan air pouch; test: Carrageenan air-pouch test (exudate cell number); type: in vivo, mouse; conditions: peptides 100 μg i.p. one hour before carrageenan, 24 h; FIGS. 18A-18B
Protocol: In this and the air-pouch test, 1.5 mg peptide was dissolved in 300 μl of DMSO, then in 0.9% NaCl to achieve the desired dose (250 μg/0.2 ml or 100 μg/0.2 ml). Carrageenan (Sigma) was dissolved in 0.9% aqueous NaCl (overnight). 50 μl of 2% carrageenan solution was injected intradermally into hind foot pads. The peptides were given in a single 250 μg dose (0.2 ml) per mouse intraperitoneally (i.p.), 30 min before carrageenan administration. Dexamethasone (DEX) (Dexaven, Polfa, Poland), a reference drug, was given i.p. in dose 25 μg per mouse. Control mice were administered i.p. appropriately diluted solvent (DMSO in aqueous NaCl) instead of peptides. The foot pads of “background” (BG) mice were injected with 50 μl of 0.9% aqueous NaCl. Foot pad edema was measured with a spring caliper, 2 h, 3 h and 4 h after administration of carrageenan. The results are presented in FIGS. 17A, 17B and 17C as mean values of the antigen-specific increase of the foot pad thickness measured in 5 mice in each experimental group and expressed in mm ±SE (only results from measurements 4 h following administration of carrageenan are presented in figures). Statistics: FIG. 17A: Control vs: DEX P=0.0001; 4B8M P=0.0001; P25 NS (P=1.0000); P28 NS (P=1.0000); P31 NS (P=0.0528); P35 P=0.0008 (ANOVA of Kruskal-Wallis); FIG. 17B: Statistics: Control vs: P22 NS (P=1.0000); P26 NS (P=1.0000); P27 P=0.0050; P30 P=0.0004; P33-b NS (P=1.0000); SP00-b P=0.0001; P00S-b NS (P=1.0000) (ANOVA of Kruskal-Wallis); FIG. 17C: Statistics: Control vs: P21 P=0.0147; P23-2 P=0.0083; P24 P=0.0001; P29 NS (P=0.9999); P32 P=0.0001; P33 NS (P=0.6806); P34 NS (P=0.1920) (ANOVA).
Air pouches were formed by subdermal injection into the dorsal region (in a halothane anesthesia) of 5 cm^3 of air (needle 23G x 11/4, 5 ml syringe). On day 3 the air pouches were given an additional 2 ml of air and an inflammatory process was elicited by an intra-pouch injection of 1% of carrageenan in 0.5 ml of 0.9% aqueous NaCl. The peptides were given i.p. at a dose of 100 μg one hour before carrageenan injection into the air pouch. The mice from the “background” (BG) group were given 0.9% aqueous NaCl i.p. and 0.9% aqueous NaCl into the air pouches. Control mice were given appropriately diluted DMSO i.p. and carrageenan into the air pouches. 24 h after carrageenan injection, the mice were sacrificed by cervical dislocation, the air pouches were supplemented with 1 ml of 0.9% aqueous NaCl and the exudates from the air pouches were aspirated using a syringe. The exudates were diluted with 0.9% aqueous NaCl and the cells were counted in a Bürker hemocytometer. Data are presented in FIGS. 18A and 18B as the mean values from 10 mice/group (cell number×10^6 per mouse) ±SE. Then the cells were centrifuged and 0.1 ml of the supernatant was saved for TNF-α determination (see Determination of TNF-α activity, above). The cell pellets were used to perform smears on microscopic glasses, which were stained with Giemsa and May-Grünwald reagents for evaluation of mast cell degranulation. Cell analysis was performed by a histologist using a light microscope and 1000× magnification. The content of intact and degranulated mast cells is given in percentage (mean values from 10 mice/group) ±SE. Statistics: FIG. 18A: BG vs Control P=0.0000; Control vs: DEX P=0.0034; 4B8M P=0.0005; P22 NS (P=0.7275); P26 P=0.0032; P27 NS (P=0.0659); P35 NS (P=1.0000) (ANOVA of Kruskal-Wallis); FIG. 18B: Control vs: P21 NS (P=0.322); P23-2 P=0.0020; P24 P=0.0001; P25 P=0.0418; P28 NS (P=0.3502); P29 NS (P=0.0582); P30 P=0.0006; P31 P=0.0078; P32 P=0.0340; P33 NS (P=0.9993); P34 NS (p=0.0566) (ANOVA).

[2] = tested on: PHA-induced proliferation of human peripheral blood mononuclear cells (PBMC); test: Proliferative response of PBMC to PHA (MTT); type: cell-based; conditions: 1 μg/ml, four-day incubation; FIGS. 9A-9B; listed as 4B8M
Protocol: PBMC were isolated by centrifugation on Ficoll-uropoline gradient (density 1.077 g/ml) (Lymphoprep; PAA Laboratories), at 800×g for 20 min at 4° C. The interphase cells, consisting of lymphocytes (20%) and monocytes (80%) were then washed three times with Hanks' medium and re-suspended in the culture medium at density of 2×10^6 cells/ml.
The isolated PBMC were distributed into 96-well flat-bottom plates in 100 μl aliquots (2×10^5 cells/well). PHA was used at concentration of 5 μg/ml. The compounds were tested at concentrations of 1, 10 and 100 μg/ml. DMSO at appropriate dilutions served as control. After a four-day incubation in a cell culture incubator, the proliferative response of cells was determined by the colorimetric MTT method (Hansen et al., J. Immunol. Methods, 1989, pp. 203-210). The data are presented as a mean OD value from quadriplicate wells ±standard error (SE). The cultures “Control (−)” contained no mitogen (PHA). The cultures “Control (PHA)” contained PHA but not cyclic tetrapeptides.
Briefly, 25 μl of MTT (5 mg/ml) stock solution was added per well at the end of cell incubation and the plates were incubated for 3 h in a cell culture incubator. Then, 100 μl of the extraction buffer (20% SDS with 50% DMF, pH 4.7) was added. After additional overnight incubation, the optical density was measured at 550 nm (Dynatech 5000).

[3] = tested on: CBA mice, humoral immune response to sheep erythrocytes; test: Primary humoral immune response to SRBC in vivo (antibody-forming cells in spleen); conditions: 10 or 100 μg, intraperitoneal, 2 h after immunization, measured after 4 days; FIG. 6
Protocol: CBA female mice, 8-12 weeks old, were delivered by The Institute of Laboratory Medicine, Lodz, Poland. The mice had free access to water and pelleted food. The local ethics committee approved the study. Sheep erythrocytes (SRBC) were delivered by Wroclaw University of Life and Environmental Sciences, Poland, and maintained on RPMI-1640 medium.
Mice were immunized with 0.2 ml of 5% SRBC suspension (0.5 ml of SRBC pellet re-suspended to a volume of 10 ml of 0.9% NaCl), intraperitonelly. After 4 days the number of antibody-forming cells (AFC) in the spleens was determined using an assay of local hemolysis in agar gel (per Mishell et al., J Exp Med, 1967, 126, 423-442). The results are presented in FIG. 6 as a mean value of 5 mice ±standard error and expressed as AFC number per 10^6 of viable splenocytes.
Mice were immunized with SRBC as described above and after 2 h were given 10 or 100 μg of the compound of formula I-A. Cyclosporin A (CsA) served as a reference drug. The number of antibody-forming cells to SRBC was measured after 4 days.

O=C1C[C@H](Cc2ccccc2)NC(=O)[C@@H]2CCCN2C(=O)[C@@H]2CCCN2C(=O)[C@H](Cc2ccccc2)N1 [I-A] (cyclo(FPP[β3hF]))
air pouch exudate cell number, P vs Control [1]: 0.0005
PHA-induced PBMC proliferation, P vs DMSO at appropriate dilution [2]: 0.9995 and 0.9919
inhibition of the number of antibody-forming cells to SRBC [3]: more inhibitory at both doses than CsA
